Results taken from patent US20040024024A1, “Aromatic sulfone hydroxamates and their use as protease inhibitors” (priority 2001, published 2004).

Legend:
Assay in all cases: In vitro MMP inhibition, IC50 determination (fluorogenic substrate I)
Format in all cases: biochemical
Human recombinant MMP-2 = molecular target: T1, Human recombinant MMP-2 (Homo sapiens, UniProt P08253)
T1 construct: made in house; host or cells: MMP-2-transfected p2AHT2 cells
T1 sequence (P08253 110-660): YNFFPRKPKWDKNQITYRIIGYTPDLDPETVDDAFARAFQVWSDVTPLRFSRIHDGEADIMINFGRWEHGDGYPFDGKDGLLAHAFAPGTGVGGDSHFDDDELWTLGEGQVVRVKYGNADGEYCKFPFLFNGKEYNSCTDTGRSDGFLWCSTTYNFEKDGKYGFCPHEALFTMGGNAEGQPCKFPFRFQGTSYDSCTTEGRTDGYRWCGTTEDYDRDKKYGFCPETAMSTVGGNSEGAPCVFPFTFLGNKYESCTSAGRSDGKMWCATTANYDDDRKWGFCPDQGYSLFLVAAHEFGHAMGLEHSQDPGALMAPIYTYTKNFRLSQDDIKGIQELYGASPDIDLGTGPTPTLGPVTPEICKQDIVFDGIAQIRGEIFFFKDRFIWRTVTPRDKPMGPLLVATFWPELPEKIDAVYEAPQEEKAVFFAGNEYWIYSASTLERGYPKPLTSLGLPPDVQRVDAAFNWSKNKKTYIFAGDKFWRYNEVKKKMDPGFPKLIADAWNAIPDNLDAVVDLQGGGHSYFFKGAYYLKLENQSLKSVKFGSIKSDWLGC
Summary of the method: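 IC50 was derived from the concentration-dependent fall in fluorescence (ex 328, em 415 nm) on Gly-Leu cleavage of 4 μM MCA/Dpa-quenched substrate I. Assays ran at room temperature in pH 7.5 Tris/NaCl/CaCl2/Brij buffer with MMP-2 activated by trypsin or APMA; inhibitors were diluted from 1% DMSO stocks.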

Human recombinant MMP-1 = molecular target: T2, Human recombinant MMP-1 (Homo sapiens, UniProt P03956)
T2 construct: made in house; host or cells: MMP-1-transfected HT-1080 cells (spent media)
T2 sequence (P03956 100-469): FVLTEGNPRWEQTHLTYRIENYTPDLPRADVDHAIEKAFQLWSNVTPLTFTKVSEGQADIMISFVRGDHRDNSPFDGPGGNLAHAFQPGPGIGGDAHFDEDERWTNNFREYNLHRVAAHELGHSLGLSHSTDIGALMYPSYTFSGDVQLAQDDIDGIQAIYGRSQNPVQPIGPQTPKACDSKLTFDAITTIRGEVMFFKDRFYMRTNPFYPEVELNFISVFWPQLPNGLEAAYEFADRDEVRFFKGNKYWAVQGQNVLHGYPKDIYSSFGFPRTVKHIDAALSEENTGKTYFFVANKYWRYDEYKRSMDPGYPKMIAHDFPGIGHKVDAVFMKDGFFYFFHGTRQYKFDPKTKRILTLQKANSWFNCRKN
Procedure: (§1) Several hydroxamates and salts thereof were analyzed in in vitro assays to determine their ability to inhibit the MMP cleavage of peptide substrates. Inhibition (Ki) and IC50 constants were calculated from the assayed hydroxamate-MMP interactions.
(§2) Human recombinant MMP-1, MMP-2, MMP-9, MMP-13, and MMP-14 were used in this assay. All enzymes were prepared in Assignee's laboratories following usual laboratory procedures. Protocols for the preparation and use of these enzymes are available in the scientific literature. See, e.g., Enzyme Nomenclature (Academic Press, San Diego, Calif., 1992) (and the citations therein). See also, Frije et al., J. Biol. Chem., 26(24), 16766-73 (1994).
The MMP-1 proenzyme was purified from the spent media of MMP-1-transfected HT-1080 cells provided by Dr. Harold Welgus of Washington University (St. Louis, Mo.). The protein was purified on a zinc chelating column.
(§3) All MMPs were activated using 4-aminophenylmercuric acetate (“APMA”, Sigma Chemical, St. Louis, Mo.) or trypsin. MMP-9 also was activated using human recombinant MMP-3 (purified in Assignee's laboratory following standard cloning and purification techniques).
(§4) Two fluorogenic, methoxycoumarin-containing polypeptide substrates were used in the MMP inhibition assays:
(§5) MCA-ProLeuGlyLeuDpaAlaArgNH2 (I)
(§6) Here, “Dpa” is 3-(2,4-dinitrophenyl)-L-2,3-diaminopropionyl group, and “MCA” is 7-methoxycoumarin-4-yl acetyl. Substrate (I) was purchased from Baychem (Redwood City, Calif.), and substrate II was prepared Assignee's laboratory. Substrate I was used in the IC50 determination assays, while substrate II was used in the Ki determination assays. In the absence of MMP inhibitory activity, either substrate is cleaved at the Gly-Leu peptide bond. This cleavage separates the highly fluorogenic peptide from the 2,4-dinitrophenyl quencher, thus resulting in increase of fluorescent intensity.
(§7) The stock solutions of the assayed hydroxamates (or salts thereof) were prepared in 1% dimethyl sulfoxide (DMSO). These stock solutions were diluted in Buffer A (100 mM Tris-HCl, 100 mM NaCl, 10 mM CaCl2, 0.05% polyoxyethylene 23 lauryl ether, pH 7.5) to obtain solutions with different hydroxamate concentrations, i.e., assay solutions with different concentrations of the assayed MMP inhibitory compound. The experiment controls contained the same amount of Buffer A/DMSO as the assayed sample, but contained no hydroxamate (or salt thereof).
(§8) The assays from which the IC50 determinations were made were performed as follows. The MMPs were activated with either trypsin or APMA (4-aminophenylmercuric acetate, Sigma Chemical, St. Louis, Mo.). The assayed hydroxamate samples were, incubated in Microfluorrm White Plates (Dynatech, Chantilly, VA) and analyzed on a Perkin Elmer L550 plate reader (Norwalk, Conn.). The excitation wavelength was 328 nm, and the emission wavelength—415 nm. All samples (assayed hydroxamates and controls) were incubated in separate plates at room temperature in the presence of 4 μM of MMP substrate (I). As stated in the previous paragraph, samples containing varying concentrations of the same assayed hydroxamate were prepared. Inhibition was measured as a reduction in fluorescent intensity as a function of MMP inhibitor concentration.

Human recombinant MMP-13 = molecular target: T3, Human recombinant MMP-13 (Homo sapiens, UniProt P45452)
T3 construct: made in house; host or cells: baculovirus / insect cells
Summary of the method: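 Fluorescence at 415 nm (excitation 328 nm) reports Gly-Leu cleavage of 4 μM quenched methoxycoumarin peptide substrate I. Human recombinant MMP-13, activated by trypsin or APMA, was incubated at room temperature with varied inhibitor concentrations in pH 7.5 Tris/NaCl/CaCl2 buffer; IC50 derived from reduced fluorescence.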

Human recombinant MMP-9 = molecular target: T4, Human recombinant MMP-9 (Homo sapiens, UniProt P14780); details: value outside parentheses
T4 construct: made in house; host or cells: MMP-9-transfected HT1080 cells (spent media)
Procedure: as §1, §2
The MMP-9 proenzyme was purified by gelatin Sepharose chromatography from spent media of MMP-9-transfected HT1080 cells provided by Dr. Howard Welgus of Washington University (St. Louis, Mo.).
as §3, §4, §5, §6, §7, §8

Human recombinant MMP-14 = molecular target: T5, Human recombinant MMP-14 (Homo sapiens, UniProt P50281); details: value outside parentheses
T5 construct: The catalytic domain enzyme was expressed in E. coli inclusion bodies, solubilized in urea; made in house
Procedure: as §1, §2
The MMP-14 full length cDNA was provided by Dr. Gregory Goldberg of Washington University (St. Louis, Mo.). The catalytic domain enzyme was expressed in E. coli inclusion bodies, solubilized in urea, purified on a preparative […] reverse phase HPLC column, and then refolded in the presence of zinc acetate and purified for use.
as §3, §4, §5, §6, §7, §8

[1] = value outside parentheses (Ki in parenthesis)

T4 sequence (P14780 107-707 limits assumed): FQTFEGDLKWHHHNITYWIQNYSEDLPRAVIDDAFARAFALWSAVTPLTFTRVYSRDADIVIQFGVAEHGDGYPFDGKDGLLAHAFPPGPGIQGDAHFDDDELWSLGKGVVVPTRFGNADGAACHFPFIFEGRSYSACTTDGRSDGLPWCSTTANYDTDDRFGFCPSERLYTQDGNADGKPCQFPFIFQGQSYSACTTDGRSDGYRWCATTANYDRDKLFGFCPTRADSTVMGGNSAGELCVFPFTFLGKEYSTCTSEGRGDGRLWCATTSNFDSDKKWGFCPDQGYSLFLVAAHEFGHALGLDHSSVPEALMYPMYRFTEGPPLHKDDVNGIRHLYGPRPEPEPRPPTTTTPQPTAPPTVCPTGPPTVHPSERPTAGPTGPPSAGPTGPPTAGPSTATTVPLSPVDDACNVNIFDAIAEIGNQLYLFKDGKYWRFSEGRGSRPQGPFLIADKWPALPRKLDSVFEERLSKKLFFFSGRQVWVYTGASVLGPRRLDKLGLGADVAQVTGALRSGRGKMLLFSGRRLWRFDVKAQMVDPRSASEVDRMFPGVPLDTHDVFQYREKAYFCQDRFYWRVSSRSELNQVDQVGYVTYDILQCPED

Structure (SMILES) | IC50 (Human recombinant MMP-2; [1]) [nM] | IC50 (Human recombinant MMP-1; [1]) [nM] | IC50 (Human recombinant MMP-13; [1]) [nM] | IC50 (Human recombinant MMP-2; value outside parentheses) [nM] | IC50 (Human recombinant MMP-1; value outside parentheses) [nM] | IC50 (Human recombinant MMP-9) [nM] | IC50 (Human recombinant MMP-14) [nM] | IC50 (Human recombinant MMP-13; value outside parentheses) [nM]
CC(C)=CCCC(C)CCOc1ccc(S(=O)(=O)C2(C(=O)NO)CCOCC2)cc1 (stereo not shown) [Example 470] | 7 | > 10000 | 3 | – | – | – | – | –
CC(C)=CC1C(COc2ccc(S(=O)(=O)C3(C(=O)NO)CCOCC3)cc2)C1(C)C (stereo not shown) [Example 471] | 270 | > 10000 | 120 | – | – | – | – | –
COC(C)(C)CCCC(C)CCOc1ccc(S(=O)(=O)C2(C(=O)NO)CCOCC2)cc1 (stereo not shown) [Example 474] | 12 | > 10000 | 3 | – | – | – | – | –
CC1CCCCC1COc1ccc(S(=O)(=O)C2(C(=O)NO)CCOCC2)cc1 (stereo not shown) [Example 477] | 1.5 | 1300 | 2 | – | – | – | – | –
O=C(NO)C1(S(=O)(=O)c2ccc(OCCOCc3cccnc3)cc2)CCOCC1 [Example 517] | – | – | – | 34.7 | > 10000 | 138 | > 10000 | –
O=C(NO)C1(S(=O)(=O)c2ccc(OCCOCc3cccnc3)cc2)CCOCC1 [Example 518] | – | – | – | 26.4 | > 10000 | 115 | 967 | –
O=C(Cc1cccs1)NCCOc1ccc(S(=O)(=O)C2(C(=O)NO)CCOCC2)cc1 [Example 617] | – | – | – | 0.8 | – | 413 | 4130 | 0.6
O=C(NCCNc1ccc(S(=O)(=O)C2(C(=O)NO)CCOCC2)cc1)c1cc2ccccc2o1 [Example 621] | – | – | – | 368 | – | – | – | 17.8

Results, then the compound that gave them:

IC50 (Human recombinant MMP-2; [1]) [nM] | IC50 (Human recombinant MMP-1; [1]) [nM] | IC50 (Human recombinant MMP-13; [1]) [nM] | IC50 (Human recombinant MMP-2; value outside parentheses) [nM] | IC50 (Human recombinant MMP-1; value outside parentheses) [nM] | IC50 (Human recombinant MMP-9) [nM] | IC50 (Human recombinant MMP-14) [nM] | IC50 (Human recombinant MMP-13; value outside parentheses) [nM] | Structure (SMILES)
– | – | – | 324 | – | – | – | 10.4 | CC(C)Cc1cccc(CCCOc2ccc(S(=O)(=O)C3(C(=O)NO)CCOCC3)cc2)c1 [Example 640]
– | – | – | 135 | – | – | – | 5 | O=C(NO)C1(S(=O)(=O)c2ccc(OCCCc3cccc(N4CCNCC4)c3)cc2)CCN(C2CC2)CC1 [Example 641]
– | – | – | 2890 | – | – | – | 36.9 | O=C(COc1ccc(S(=O)(=O)C2(C(=O)NO)CCOCC2)cc1)Nc1cccc(-c2ccccc2)c1 [Example 642]
– | – | – | 1130 | – | – | – | 11.4 | O=C(NCCCOc1ccc(S(=O)(=O)C2(C(=O)NO)CCN(C3CC3)CC2)cc1)C1C2CC3CC(C2)CC1C3 (stereo not shown) [Example 643]
– | – | – | 2630 | – | – | – | 20.9 | CN(CCCOc1ccc(S(=O)(=O)C2(C(=O)NO)CCN(C3CC3)CC2)cc1)C(=O)C1C2CC3CC(C2)CC1C3 (stereo not shown) [Example 644]
– | – | – | 3.91 | > 10000 | 47.1 | – | 0.41 | CC(=O)c1ccc(OCCOc2ccc(S(=O)(=O)C3(C(=O)NO)CCOCC3)cc2)cc1 [Example 659]
